The source of these data is patent US8785460B2, “Tricyclic compounds and use thereof” (Takeda Pharmaceutical Company Limited, priority 2008, dated 2014).

One data set concerns the target T1, human CRF1 receptor (Homo sapiens, UniProt P34998).
T1 construct: expressed in transfected cells; host or cells: CHO cells (membrane fraction)
T1 sequence (P34998 24-415): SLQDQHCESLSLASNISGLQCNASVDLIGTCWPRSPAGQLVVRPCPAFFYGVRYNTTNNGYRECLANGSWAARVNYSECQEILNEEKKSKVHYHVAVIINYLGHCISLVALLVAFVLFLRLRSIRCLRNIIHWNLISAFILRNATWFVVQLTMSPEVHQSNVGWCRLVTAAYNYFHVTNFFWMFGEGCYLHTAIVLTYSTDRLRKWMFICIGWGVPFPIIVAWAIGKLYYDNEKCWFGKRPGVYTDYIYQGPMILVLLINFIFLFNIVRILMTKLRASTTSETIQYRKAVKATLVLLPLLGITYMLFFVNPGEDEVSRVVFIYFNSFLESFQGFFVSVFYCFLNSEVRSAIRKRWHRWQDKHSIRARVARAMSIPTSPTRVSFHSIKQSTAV
Nature of the data set: Measurement of CRF Binding Inhibitory Rate (receptor binding experiment with 125I-CRF). To be noted: human CRF1 receptor expressing CHO cellular membrane fraction, 50 pM 125I-CRF, room temperature 1.5 hr, 0.05 nM to 10 μM of compound; read-out: IC50 values (CRF binding inhibition).

A value given as a limit tells only on which side of the number the result lay.

For the molecule `CCC(CC)c1ccc(Cl)c2nc3n(c12)CCCCN3c1ccc(OC)nc1OC` [Example 28, 10-Chloro-1-(2,6-dimethoxypyridin-3-yl)-7-(1-ethylpropyl)-2,3,4,5-tetrahydro-1H-[1,3]diazepino[1,2-a]benzimidazole], the melting point (in general, the temperature, or range, at which the solid turns liquid) lay in the range of 85 to 88 °C. For the same molecule, at human CRF1 receptor, the IC50 (in general, the concentration needed to halve the response being measured) was below 1000 nM.
For `CCC(OC(C)=O)c1ccc(Cl)c2nc3n(c12)CCCN3c1cnc(N(C)C)cc1C` (stereo not drawn) [Example 155, 1-{9-Chloro-1-[6-(dimethylamino)-4-methylpyridin-3-yl]-1,2,3,4-tetrahydropyrimido[1,2-a]benzimidazol-6-yl}propyl acetate], the melting point lay within 159 to 160 °C. In addition, the IC50 at human CRF1 receptor was below 1000 nM.
On the same counts, the results for `CCOC(CC)c1ccc(Cl)c2nc3n(c12)CCCN3c1ccc(Cl)cc1Cl` (stereo not drawn) [Example 116, 9-Chloro-1-(2,4-dichlorophenyl)-6-(1-ethoxypropyl)-1,2,3,4-tetrahydropyrimido[1,2-a]benzimidazole] are 108 to 110 °C and below 1000 nM.
With `CCCC(O)(CCC)c1ccc(Cl)c2nc3n(c12)CCCN3c1c(C)cc(Cl)cc1Cl` [Example 139, 4-[9-Chloro-1-(2,4-dichloro-6-methylphenyl)-1,2,3,4-tetrahydropyrimido[1,2-a]benzimidazol-6-yl]heptan-4-ol], the melting point lay in the range of 176 to 178 °C. For the same molecule, the IC50 on human CRF1 receptor was below 1000 nM.
The molecule `CCC(CC)c1ccc(Cl)c2nc3n(c12)CCCCN3c1ccc(C(F)(F)F)cc1Br` [Example 38, 1-[2-Bromo-4-(trifluoromethyl)phenyl]-10-chloro-7-(1-ethylpropyl)-2,3,4,5-tetrahydro-1H-[1,3]diazepino[1,2-a]benzimidazole] displayed a melting point of 158 to 160 °C. Moreover, at human CRF1 receptor, the IC50 is below 1000 nM.
Molecule `CCC(CC)c1ccc(Cl)c2nc3n(c12)CCCCN3c1ccc(S(C)(=O)=O)cc1C` [Example 46, 10-Chloro-7-(1-ethylpropyl)-1-[2-methyl-4-(methylsulfonyl)phenyl]-2,3,4,5-tetrahydro-1H-[1,3]diazepino[1,2-a]benzimidazole] displayed a melting point of 170 to 171 °C. Moreover, the IC50 on human CRF1 receptor is below 1000 nM.
Molecule `CCC(O)(CC)c1ccc(Cl)c2nc3n(c12)CCCN3c1ccc(Cl)cc1C(F)(F)F` [Example 128, 3-{9-Chloro-1-[4-chloro-2-(trifluoromethyl)phenyl]-1,2,3,4-tetrahydropyrimido[1,2-a]benzimidazol-6-yl}pentan-3-ol] registered a melting point of 178 to 180 °C. Besides, on human CRF1 receptor, the IC50 was below 1000 nM.
As to `CCN(CC)c1cccc2nc3n(c12)CC(O)CCN3c1ccc(Cl)cc1Cl` (stereo not drawn) [Example 70, 1-(2,4-Dichlorophenyl)-7-(diethylamino)-2,3,4,5-tetrahydro-1H-[1,3]diazepino[1,2-a]benzimidazol-4-ol], the melting point was in the range of 207 to 208 °C. Besides, the IC50 on human CRF1 receptor is below 1000 nM.
Molecule `CCC(O)c1ccc(Cl)c2nc3n(c12)CCCN3c1c(Cl)cc(OC)cc1Cl` (stereo not drawn) [Example 394, 1-[9-Chloro-1-(2,6-dichloro-4-methoxyphenyl)-1,2,3,4-tetrahydropyrimido[1,2-a]benzimidazol-6-yl]propan-1-ol] displayed a melting point of 206 to 208 °C. In addition, the IC50 on human CRF1 receptor is below 1000 nM.
Consider `CCC(CC)c1ccc(Cl)c2nc3n(c12)CCCCN3c1ncc(S(C)(=O)=O)cc1C` [Example 341, 10-Chloro-7-(1-ethylpropyl)-1-[3-methyl-5-(methylsulfonyl)pyridin-2-yl]-2,3,4,5-tetrahydro-1H-[1,3]diazepino[1,2-a]benzimidazole], for which the melting point was 137 to 139 °C. Also, the IC50 on human CRF1 receptor is below 1000 nM.
For `CCC(c1ccc(Cl)c2nc3n(c12)CCCN3c1ccc(Cl)cc1Cl)S(=O)(=O)CC` (stereo not drawn) [Example 462], in that order: 278 to 280 °C and below 1000 nM.
On to `COC(c1ccc(Cl)c2nc3n(c12)CCCN3c1ccc(Cl)cc1Cl)C(F)(F)F` (stereo not drawn) [Example 309, 9-Chloro-1-(2,4-dichlorophenyl)-6-(2,2,2-trifluoro-1-methoxyethyl)-1,2,3,4-tetrahydropyrimido[1,2-a]benzimidazole], for which the melting point was 161 to 163 °C. The IC50 on human CRF1 receptor was below 1000 nM.
On the same counts, the results for `CCC(OC(=O)C1CC1)c1ccc(Cl)c2nc3n(c12)CCCN3c1ccc(OC)cc1Cl` (stereo not drawn) [Example 482, 1-[9-Chloro-1-(2-chloro-4-methoxyphenyl)-1,2,3,4-tetrahydropyrimido[1,2-a]benzimidazol-6-yl]propyl cyclopropanecarboxylate] are 130 to 132 °C and below 1000 nM.
For `CCC(OC(C)=O)c1ccc(Cl)c2nc3n(c12)CCCN3c1ccc(Cl)cc1Cl` (racemic) [Example 238, 1-[9-Chloro-1-(2,4-dichlorophenyl)-1,2,3,4-tetrahydropyrimido[1,2-a]benzimidazol-6-yl]propyl acetate], in that order: 174 to 176 °C and below 1000 nM.
`CCC(CC)c1ccc(Cl)c2nc3n(c12)CCCCN3c1ccc(N(C)C)cc1C` [Example 51, 4-[10-Chloro-7-(1-ethylpropyl)-2,3,4,5-tetrahydro-1H-[1,3]diazepino[1,2-a]benzimidazol-1-yl]-N,N,3-trimethylaniline] returned a melting point of 174 to 175 °C. On human CRF1 receptor, the IC50 is below 1000 nM.
Turning to `CCC(=O)OC(CC)c1ccc(Cl)c2nc3n(c12)CCCN3c1ccc(Cl)cc1Cl` (stereo not drawn) [Example 241, 1-[9-Chloro-1-(2,4-dichlorophenyl)-1,2,3,4-tetrahydropyrimido[1,2-a]benzimidazol-6-yl]propyl propanoate], the melting point is 133 to 135 °C. Also, the IC50 on human CRF1 receptor is below 1000 nM.
For the molecule `CCC(OC(=O)CS(C)(=O)=O)c1ccc(Cl)c2nc3n(c12)CCCN3c1ccc(Cl)cc1Cl` (stereo not drawn) [Example 433, 1-[9-Chloro-1-(2,4-dichlorophenyl)-1,2,3,4-tetrahydropyrimido[1,2-a]benzimidazol-6-yl]propyl (methylsulfonyl) acetate], the melting point was in the range of 187 to 189 °C. Moreover, at human CRF1 receptor, the IC50 was below 1000 nM.
For `COc1ccc(N2CCCn3c2nc2c(Cl)ccc(C(OCC(F)(F)F)C4CC4)c23)c(C)c1` (stereo not drawn) [Example 353, 9-Chloro-6-[cyclopropyl(2,2,2-trifluoroethoxy)methyl]-1-(4-methoxy-2-methylphenyl)-1,2,3,4-tetrahydropyrimido[1,2-a]benzimidazole], in that order: 157 to 158 °C and below 1000 nM.
For `CCC(CC)(OC)c1ccc(Cl)c2nc3n(c12)CCCN3c1ccc(Cl)cc1C(F)(F)F` [Example 130, 9-Chloro-1-[4-chloro-2-(trifluoromethyl)phenyl]-6-(1-ethyl-1-methoxypropyl)-1,2,3,4-tetrahydropyrimido[1,2-a]benzimidazole], in that order: 172 to 173 °C and below 1000 nM.
`CCNC(CC)c1ccc(Cl)c2nc3n(c12)CCCN3c1ccc(Cl)cc1Cl` (stereo not drawn) [Example 458, 1-[9-Chloro-1-(2,4-dichlorophenyl)-1,2,3,4-tetrahydropyrimido[1,2-a]benzimidazol-6-yl]-N-ethylpropan-1-amine] had a melting point of 124 to 127 °C. Moreover, the half-inhibitory concentration (IC50) at human CRF1 receptor was below 1000 nM.
In turn, `CC(=O)OC(c1ccc(Cl)c2nc3n(c12)CCCN3c1ccc(Cl)cc1Cl)C1CC1` (stereo not drawn) [Example 244, [9-Chloro-1-(2,4-dichlorophenyl)-1,2,3,4-tetrahydropyrimido[1,2-a]benzimidazol-6-yl](cyclopropyl)methyl acetate] gave a melting point of 208 to 210 °C. For the same molecule, at human CRF1 receptor, the IC50 was below 1000 nM.
With `COCC(=O)OC(c1ccc(Cl)c2nc3n(c12)CCCN3c1ccc(Cl)cc1Cl)C1CC1` (stereo not drawn) [Example 479], the melting point was 159 to 161 °C. Further, on human CRF1 receptor, the IC50 was below 1000 nM.
On the same counts, the results for `CCC(CC)c1ccc(Cl)c2nc3n(c12)CCCCN3c1c[n+]([O-])c(N(C)C)cc1C` [Example 26, 5-[10-Chloro-7-(1-ethylpropyl)-2,3,4,5-tetrahydro-1H-[1,3]diazepino[1,2-a]benzimidazol-1-yl]-N,N,4-trimethylpyridin-2-amine 1-oxide] are 142 to 143 °C and below 1000 nM.
On the same counts, the results for `CCCC(O)(CCC)c1ccc(Cl)c2nc3n(c12)CCCN3c1ccc(Cl)cc1Cl` [Example 233, 4-[9-Chloro-1-(2,4-dichlorophenyl)-1,2,3,4-tetrahydropyrimido[1,2-a]benzimidazol-6-yl]heptan-4-ol] are 133 to 135 °C and below 1000 nM.
On the same counts, the results for `CCC(CC)c1ccc(Cl)c2nc3n(c12)CCN3c1ccc(Cl)cc1Cl` [Example 3, 8-Chloro-1-(2,4-dichlorophenyl)-5-(1-ethylpropyl)-2,3-dihydro-1H-imidazo[1,2-a]benzimidazole] are 171 to 173 °C and below 1000 nM.
With `COc1nc(C)nc(OC)c1N1CCCn2c1nc1c(Cl)ccc(C(O)(C3CC3)C3CC3)c12` [Example 174, [9-Chloro-1-(4,6-dimethoxy-2-methylpyrimidin-5-yl)-1,2,3,4-tetrahydropyrimido[1,2-a]benzimidazol-6-yl](dicyclopropyl)methanol], the melting point was in the range of 204 to 205 °C. The IC50 on human CRF1 receptor is below 1000 nM.
In turn, `CCN(CC)c1cccc2nc3n(c12)CC(=O)CCN3c1ccc(Cl)cc1Cl` [Example 71, 1-(2,4-Dichlorophenyl)-7-(diethylamino)-2,3-dihydro-1H-[1,3]diazepino[1,2-a]benzimidazol-4(5H)-one] gave a melting point of 169 to 170 °C. Moreover, the IC50 on human CRF1 receptor is below 1000 nM.
